Measured values as given in patent US10940139B2, “Compounds that interact with the Ras superfamily for the treatment of cancers, inflammatory diseases, rasopathies, and fibrotic disease” (Shy Therapeutics LLC, priority 2017, dated 2021).
Like-named read-outs stand apart in the source and are kept apart here.

What was measured:
[1] = target: KRas G12C/Q61H double mutant (Homo sapiens (Human), UniProt P01116, G12C/Q61H); assay: Ras GTP binding domain inhibition assay (labeled GTP); conditions: 20 μM compound; read-out: % Inhibition at 20 μM KRas G12C Q61H
KRas G12C/Q61H double mutant, sequence (P01116-2 other isoform, or with tags, fused parts or gaps G12C/Q61H): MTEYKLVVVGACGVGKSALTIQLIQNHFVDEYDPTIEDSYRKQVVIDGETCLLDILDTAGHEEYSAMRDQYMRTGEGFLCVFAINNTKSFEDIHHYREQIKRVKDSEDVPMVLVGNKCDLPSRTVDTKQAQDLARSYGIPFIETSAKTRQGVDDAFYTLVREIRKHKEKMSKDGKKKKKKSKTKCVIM
Outline: (§1)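 Labelled-GTP binding: plate-captured His-KRas protein was pre-exposed to compound for 3 h at room temperature (single 20 μM point or dilution series, 1% DMSO, Tris pH 7.5/MgCl2/DTT buffer). Cy3- or Cy5-GTP was then added for 45 min. Washed wells were read for retained fluorescence to give inhibition or IC50.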

KRas Q61H mutant = KRas Q61H mutant (Homo sapiens (Human), UniProt P01116, Q61H); assay: as above; conditions: 20 μM compound; read-out: % Inhibition at 20 μM KRas Q61H
KRas Q61H mutant, sequence (P01116-2 other isoform, or with tags, fused parts or gaps Q61H): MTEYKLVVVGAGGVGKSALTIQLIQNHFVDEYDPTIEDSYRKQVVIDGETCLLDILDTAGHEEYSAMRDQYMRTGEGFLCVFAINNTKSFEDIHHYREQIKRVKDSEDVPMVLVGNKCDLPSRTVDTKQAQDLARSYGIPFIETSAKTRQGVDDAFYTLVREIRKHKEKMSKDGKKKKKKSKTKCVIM
Outline: as §1

[2] = target: KRas G12D/Q61H double mutant (Homo sapiens (Human), UniProt P01116, G12D/Q61H); assay: as above; conditions: for IC50: serial dilution, read-out: KRas G12D Q61H (classes E-H, IC50)
KRas G12D/Q61H double mutant, sequence (P01116-2 other isoform, or with tags, fused parts or gaps G12D/Q61H): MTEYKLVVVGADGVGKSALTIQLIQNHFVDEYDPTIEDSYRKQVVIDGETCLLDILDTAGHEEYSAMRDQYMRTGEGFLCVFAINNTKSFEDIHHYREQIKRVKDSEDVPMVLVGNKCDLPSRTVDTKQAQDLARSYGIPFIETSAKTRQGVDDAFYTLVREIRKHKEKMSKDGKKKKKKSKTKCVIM
Outline: as §1

Rho-A = Rho-A (Homo sapiens (Human), UniProt P61586); assay: Rho inhibition assay (labeled GTP); assay type: binding; conditions: read-out: Rho-A % Inh.
Rho-A, sequence (P61586 whole entry, the tested form may be a part): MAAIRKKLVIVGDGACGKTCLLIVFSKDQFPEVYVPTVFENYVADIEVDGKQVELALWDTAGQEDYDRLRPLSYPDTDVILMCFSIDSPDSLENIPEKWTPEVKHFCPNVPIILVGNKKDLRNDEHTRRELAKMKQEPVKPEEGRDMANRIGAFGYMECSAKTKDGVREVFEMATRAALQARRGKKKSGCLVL

KRas G12D mutant protein = KRas G12D mutant protein (Homo sapiens (Human), UniProt P01116, G12D); assay: Ras GTP binding domain inhibition assay (labeled GTP); conditions: at 20 μM; read-out: KRas G12D % Inh.
KRas G12D mutant protein, sequence (P01116-2 other isoform, or with tags, fused parts or gaps G12D): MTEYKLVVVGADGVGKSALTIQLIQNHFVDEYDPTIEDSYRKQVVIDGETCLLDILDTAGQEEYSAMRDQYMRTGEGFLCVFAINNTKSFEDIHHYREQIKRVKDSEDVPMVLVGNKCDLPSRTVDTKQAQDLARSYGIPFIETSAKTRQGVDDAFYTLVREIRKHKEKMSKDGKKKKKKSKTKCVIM

Rac-1 = Rac-1 (Homo sapiens (Human), UniProt P63000); assay: Rac inhibition assay (labeled GTP); assay type: binding; conditions: read-out: Rac-1 % Inh.
[3] = 20 μM compound, read-out: % Inhibition at 20 μM KRas G12D Q61H
[4] = at 20 μM, read-out: KRas G12D Q61H % Inh.

Compound | inhibition at 20 µM [1] | inhibition at 20 µM (KRas Q61H mutant) | inhibition at 20 µM [2, 3] | inhibition at 20 µM (Rho-A) | inhibition at 20 µM (KRas G12D mutant protein) | inhibition at 20 µM [2, 4] | inhibition at 20 µM (Rac-1) | IC50 [2]
Oc1nc(-c2ccccn2)nc2c(-c3ccccc3)csc12 [drawing 2694] | 25 to 50% | 51 to 75% | 25 to 50% | – | – | – | – | –
COc1cccc(N2CCN(C(=O)c3csc4c(O)nc(-c5ccccn5)nc34)CC2)c1 [drawing 2713] | 51 to 75% | 51 to 75% | 1 to 25% | – | – | – | – | –
Cc1ccccc1N1CCN(C(=O)c2csc3c(O)nc(-c4ccccn4)nc23)CC1 [drawing 2723] | 51 to 75% | 51 to 75% | 25 to 50% | – | – | – | – | –
O=C(c1csc2c(O)nc(-c3ccccn3)nc12)N1CCN(Cc2cccc(O)c2)CC1 [drawing 2726] | 76 to 100% | 76 to 100% | 76 to 100% | – | – | – | – | 11 to 30 µM
O=C(c1csc2c(O)nc(-c3ccccn3)nc12)N1CCOC(c2cccc(F)c2)C1 (stereo not shown) [drawing 2732] | 1 to 25% | 1 to 25% | 25 to 50% | – | – | – | – | –
O=C(c1csc2c(O)nc(-c3ccccn3)nc12)N1CCOC(c2nccs2)C1 (stereo not shown) [drawing 2734] | 51 to 75% | 51 to 75% | 25 to 50% | – | – | – | – | 5 to 10 µM
COc1ccnc(-c2nc(O)c3c(Br)csc3n2)c1 [drawing 2742] | 1 to 25% | 25 to 50% | 25 to 50% | – | – | – | – | –
O=C(NCCc1cccnc1)c1csc2nc(-c3ccccn3)nc(N3CCOCC3)c12 [drawing 2744] | 25 to 50% | 51 to 75% | 1 to 25% | – | – | – | – | –
COc1ccc(CCNC(=O)c2csc3nc(-c4ccccn4)nc(N4CCOCC4)c23)cn1 [drawing 2745] | 25 to 50% | 51 to 75% | 25 to 50% | – | – | – | – | –
COc1ccc(CCN(C)C(=O)c2csc3nc(-c4ccccn4)nc(N4CCOCC4)c23)cn1 [drawing 2746] | 25 to 50% | 25 to 50% | 0% | – | – | – | – | –
COc1cc(CCNC(=O)c2csc3nc(-c4ccccn4)nc(N4CCOCC4)c23)ccn1 [drawing 2747] | 25 to 50% | 25 to 50% | 1 to 25% | – | – | – | – | –
COc1ncc(CCNC(=O)c2csc3nc(-c4ccccn4)nc(N4CCOCC4)c23)cn1 [drawing 2748] | 25 to 50% | 25 to 50% | 1 to 25% | – | – | – | – | –
O=C(NCCc1cncs1)c1csc2nc(-c3ccccn3)nc(N3CCOCC3)c12 [drawing 2749] | 25 to 50% | 25 to 50% | 1 to 25% | – | – | – | – | –
N#Cc1ccc(CCNC(=O)c2csc3nc(-c4ccccn4)nc(N4CCOCC4)c23)cc1 [drawing 2750] | 1 to 25% | 1 to 25% | 1 to 25% | – | – | – | – | –
CC(C)(C(=O)Nc1ccnc(-c2ccccn2)n1)c1ccc(C#N)cc1 [drawing 2751] | 51 to 75% | 51 to 75% | 1 to 25% | – | – | – | – | –
CC(C)(C(=O)Nc1nc(-c2ccccn2)nc2sccc12)c1ccc(C#N)cc1 [drawing 2752] | 1 to 25% | 1 to 25% | 0% | – | – | – | – | –

Compound | inhibition at 20 µM [1] | inhibition at 20 µM (KRas Q61H mutant) | inhibition at 20 µM [2, 3] | inhibition at 20 µM (Rho-A) | inhibition at 20 µM (KRas G12D mutant protein) | inhibition at 20 µM [2, 4] | inhibition at 20 µM (Rac-1) | IC50 [2]
O=C(c1csc2c(O)nc(-c3ccccn3)nc12)N1CCN(c2cccc(F)c2)CC1 [drawing 2753] | 51 to 75% | 76 to 100% | 25 to 50% | – | – | – | – | –
O=C(c1csc2c(O)nc(-c3ccccn3)nc12)N1CCN(c2ccc(F)cc2)CC1 [drawing 2754] | 25 to 50% | 25 to 50% | 0% | – | – | – | – | –
N#Cc1cccc(N2CCN(C(=O)c3csc4c(O)nc(-c5ccccn5)nc34)CC2)c1 [drawing 2755] | 25 to 50% | 25 to 50% | 1 to 25% | – | – | – | – | –
N#Cc1ccc(N2CCN(C(=O)c3csc4c(O)nc(-c5ccccn5)nc34)CC2)cc1 [drawing 2756] | 51 to 75% | 51 to 75% | 0% | – | – | – | – | –
COc1cc(OC)cc(N2CCN(C(=O)c3csc4c(O)nc(-c5ccccn5)nc34)CC2)c1 [drawing 2757] | 1 to 25% | 1 to 25% | 0% | – | – | – | – | –
COc1cc(N2CCN(C(=O)c3csc4c(O)nc(-c5ccccn5)nc34)CC2)cc(OC)c1OC [drawing 2758] | 1 to 25% | 25 to 50% | 0% | – | – | – | – | –
COc1ccc(N2CCN(C(=O)c3csc4c(O)nc(-c5ccccn5)nc34)CC2)c(OC)c1 [drawing 2759] | 51 to 75% | 51 to 75% | 25 to 50% | – | – | – | – | –
O=C(c1csc2c(O)nc(-c3ccccn3)nc12)N1CCN(c2ccc(F)cc2F)CC1 [drawing 2760] | 25 to 50% | 25 to 50% | 51 to 75% | – | – | – | – | –
O=C(c1csc2c(O)nc(-c3ccccn3)nc12)N1CCN(Cc2ccccc2)CC1 [drawing 2762] | 51 to 75% | 76 to 100% | 25 to 50% | – | – | – | – | –
O=C(c1csc2c(O)nc(-c3ccccn3)nc12)N1CCN(Cc2ccc(O)cc2)CC1 [drawing 2764] | 25 to 50% | 25 to 50% | 1 to 25% | – | – | – | – | –
O=C(c1csc2c(O)nc(-c3ccccn3)nc12)N1CCN(Cc2ccc(O)c(Cl)c2)CC1 [drawing 2765] | 76 to 100% | 76 to 100% | 25 to 50% | – | – | – | – | –
O=C(c1csc2c(O)nc(-c3ccccn3)nc12)N1CCOC(c2ccccc2)C1 (stereo not shown) [drawing 2766] | 25 to 50% | 51 to 75% | 1 to 25% | – | – | – | – | –
COc1ccccc1C1CN(C(=O)c2csc3c(O)nc(-c4ccccn4)nc23)CCO1 (stereo not shown) [drawing 2767] | 51 to 75% | 76 to 100% | 51 to 75% | – | – | – | – | 11 to 30 µM
COc1ccc(C2CN(C(=O)c3csc4c(O)nc(-c5ccccn5)nc34)CCO2)cc1 (stereo not shown) [drawing 2768] | 25 to 50% | 25 to 50% | 25 to 50% | – | – | – | – | –
Cc1ccccc1C1CN(C(=O)c2csc3c(O)nc(-c4ccccn4)nc23)CCN1 (stereo not shown) [drawing 2775] | 51 to 75% | 76 to 100% | 25 to 50% | – | – | – | – | –

More lines, main results first:

inhibition at 20 µM [1] | inhibition at 20 µM (KRas Q61H mutant) | inhibition at 20 µM [2, 3] | inhibition at 20 µM (Rho-A) | inhibition at 20 µM (KRas G12D mutant protein) | inhibition at 20 µM [2, 4] | inhibition at 20 µM (Rac-1) | Compound | IC50 [2]
25 to 50% | 51 to 75% | 1 to 25% | – | – | – | – | O=C(c1csc2c(O)nc(-c3ccccn3)nc12)N1CCOC(c2cccc(Cl)c2)C1 (stereo not shown) [drawing 2770] | –
51 to 75% | 51 to 75% | 25 to 50% | – | – | – | – | O=C(c1csc2c(O)nc(-c3ccccn3)nc12)N1CCOC(Cc2ccccc2)C1 (stereo not shown) [drawing 2771] | –
51 to 75% | 76 to 100% | 25 to 50% | – | – | – | – | COc1ccccc1C1CN(C(=O)c2csc3c(O)nc(-c4ccccn4)nc23)CCN1 (stereo not shown) [drawing 2772] | –
76 to 100% | 76 to 100% | 1 to 25% | – | – | – | – | COc1ccc(C2CN(C(=O)c3csc4c(O)nc(-c5ccccn5)nc34)CCN2)cc1 (stereo not shown) [drawing 2774] | –
– | – | – | 51 to 75% | 25 to 50% | 25 to 50% | 25 to 50% | COc1nc(-c2cn(C)cn2)nc2sc(-c3ccncc3)c(-c3ccccc3)c12 [drawing 3849] | –
– | – | – | 76 to 100% | 25 to 50% | 51 to 75% | 51 to 75% | OCC1(c2ccc(-c3nc(-c4ccccn4)nc(O)c3Oc3ccccc3)cc2)CC1 [drawing 3852] | –
– | – | – | 76 to 100% | 51 to 75% | 51 to 75% | 76 to 100% | COCCNc1nc(-c2ccccn2)nc2c1c(-c1ccccc1)nn2-c1ccccn1 [drawing 3856] | –
– | – | – | 51 to 75% | 51 to 75% | 51 to 75% | 51 to 75% | Oc1nc(-c2ccccn2)nc2c1c(-c1ccccc1)nn2-c1ccccn1 [drawing 3857] | –
– | – | – | 76 to 100% | 51 to 75% | 51 to 75% | 76 to 100% | COc1nc(-c2ccccn2)nc2c1c(-c1ccccc1)nn2-c1ccccn1 [drawing 3858] | –
– | – | – | 51 to 75% | 25 to 50% | 51 to 75% | 51 to 75% | COCC(C)Nc1nc(-c2ccccn2)nc2sc(-c3ccncc3)c(-c3ccccc3)c12 (stereo not shown) [drawing 3859] | –
– | – | – | 76 to 100% | 76 to 100% | 51 to 75% | 51 to 75% | COc1c(O)nc(-c2ccccn2)nc1Oc1cccc(C(F)(F)F)c1 [drawing 3875] | –
– | – | – | 51 to 75% | 51 to 75% | 51 to 75% | 51 to 75% | Oc1nc(-c2ccccn2)nc(Oc2cccc(C(F)(F)F)c2)c1O [drawing 3876] | –
– | – | – | 51 to 75% | 51 to 75% | 51 to 75% | 25 to 50% | Oc1nc(-c2ccccn2)nc2cc(-c3ccncc3)sc12 [drawing 3879] | –
– | – | – | 51 to 75% | 51 to 75% | 51 to 75% | 25 to 50% | Oc1nc(-c2ccccn2)nc2cc(-c3ccccc3)sc12 [drawing 3880] | –
